What was measured:
[1] = biological target: rat α-glucosidase (Rat aG); assay: Test of IC50: inhibitive activity on rat α-glucosidase; format: biochemical; conditions: Embodiment 2, Table 2, single components
Source text: (§1) Testing and comparing the inhibitive activity Max % and IC50 of the composition and a known diabetes drug A (α-glucosidase inhibitor) to rat α-glucosidase (abbreviated as Rat aG) and yeast α-glucosidase (abbreviated as Yeast aG), individually. IC50 means the concentration of the inhibitor to achieve 50% inhibition rate.
(§2) The present embodiment tests IC50 of adenine, 3-hydroxy-dl-proline, nicotinic acid, (3,6-dioxo-piperazin-2-yl)-acetic acid amide, 2-ethylhexyl heptanoate, and the diabetes drug A to Rat aG and Yeast aG, individually.

[2] = biological target: yeast α-glucosidase (Yeast aG); format: biochemical; conditions: Embodiment 2, Table 2, single components
Source text: as §1, §2

Row | Structure (SMILES) | Rat aGI (IC50 to Rat aG) [1] [µg/mL] | Yeast aGI (IC50 to Yeast aG) [2] [µg/mL]
1 | CCCCCCC(=O)OCC(CC)CCCC (stereo not shown) [2-ethylhexyl heptanoate] | 105 | 4.0
2 | NC(=O)CC1NC(=O)CNC1=O (stereo not shown) [(3,6-dioxo-piperazin-2-yl)-acetic acid amide] | 105 | 4.0
3 | Nc1ncnc2nc[nH]c12 [Adenine] |  | 21.5
4 | O=C(O)c1cccnc1 [Nicotinic acid] | 67 | 517
